Data from patent US11878966B2, “Substituted 4-benzyl and 4-benzoyl piperidine derivates” (89BIO LTD, priority 2015, dated 2024).

target: T1, recombinant human baculovirus-expressed GST-tagged FASN (Homo sapiens, UniProt P49327); test: FASN enzyme activity assay: fluorescence-based detection of CoA with CPM; type: biochemical; settings: 5 nM FASN, 150 μM NADPH, 10 μM acetyl-CoA, 25 μM malonyl-CoA, 90 minutes incubation
T1 construct: GST; host or cells: baculovirus expression system (insect cells implied)
T1 sequence (P49327 whole entry): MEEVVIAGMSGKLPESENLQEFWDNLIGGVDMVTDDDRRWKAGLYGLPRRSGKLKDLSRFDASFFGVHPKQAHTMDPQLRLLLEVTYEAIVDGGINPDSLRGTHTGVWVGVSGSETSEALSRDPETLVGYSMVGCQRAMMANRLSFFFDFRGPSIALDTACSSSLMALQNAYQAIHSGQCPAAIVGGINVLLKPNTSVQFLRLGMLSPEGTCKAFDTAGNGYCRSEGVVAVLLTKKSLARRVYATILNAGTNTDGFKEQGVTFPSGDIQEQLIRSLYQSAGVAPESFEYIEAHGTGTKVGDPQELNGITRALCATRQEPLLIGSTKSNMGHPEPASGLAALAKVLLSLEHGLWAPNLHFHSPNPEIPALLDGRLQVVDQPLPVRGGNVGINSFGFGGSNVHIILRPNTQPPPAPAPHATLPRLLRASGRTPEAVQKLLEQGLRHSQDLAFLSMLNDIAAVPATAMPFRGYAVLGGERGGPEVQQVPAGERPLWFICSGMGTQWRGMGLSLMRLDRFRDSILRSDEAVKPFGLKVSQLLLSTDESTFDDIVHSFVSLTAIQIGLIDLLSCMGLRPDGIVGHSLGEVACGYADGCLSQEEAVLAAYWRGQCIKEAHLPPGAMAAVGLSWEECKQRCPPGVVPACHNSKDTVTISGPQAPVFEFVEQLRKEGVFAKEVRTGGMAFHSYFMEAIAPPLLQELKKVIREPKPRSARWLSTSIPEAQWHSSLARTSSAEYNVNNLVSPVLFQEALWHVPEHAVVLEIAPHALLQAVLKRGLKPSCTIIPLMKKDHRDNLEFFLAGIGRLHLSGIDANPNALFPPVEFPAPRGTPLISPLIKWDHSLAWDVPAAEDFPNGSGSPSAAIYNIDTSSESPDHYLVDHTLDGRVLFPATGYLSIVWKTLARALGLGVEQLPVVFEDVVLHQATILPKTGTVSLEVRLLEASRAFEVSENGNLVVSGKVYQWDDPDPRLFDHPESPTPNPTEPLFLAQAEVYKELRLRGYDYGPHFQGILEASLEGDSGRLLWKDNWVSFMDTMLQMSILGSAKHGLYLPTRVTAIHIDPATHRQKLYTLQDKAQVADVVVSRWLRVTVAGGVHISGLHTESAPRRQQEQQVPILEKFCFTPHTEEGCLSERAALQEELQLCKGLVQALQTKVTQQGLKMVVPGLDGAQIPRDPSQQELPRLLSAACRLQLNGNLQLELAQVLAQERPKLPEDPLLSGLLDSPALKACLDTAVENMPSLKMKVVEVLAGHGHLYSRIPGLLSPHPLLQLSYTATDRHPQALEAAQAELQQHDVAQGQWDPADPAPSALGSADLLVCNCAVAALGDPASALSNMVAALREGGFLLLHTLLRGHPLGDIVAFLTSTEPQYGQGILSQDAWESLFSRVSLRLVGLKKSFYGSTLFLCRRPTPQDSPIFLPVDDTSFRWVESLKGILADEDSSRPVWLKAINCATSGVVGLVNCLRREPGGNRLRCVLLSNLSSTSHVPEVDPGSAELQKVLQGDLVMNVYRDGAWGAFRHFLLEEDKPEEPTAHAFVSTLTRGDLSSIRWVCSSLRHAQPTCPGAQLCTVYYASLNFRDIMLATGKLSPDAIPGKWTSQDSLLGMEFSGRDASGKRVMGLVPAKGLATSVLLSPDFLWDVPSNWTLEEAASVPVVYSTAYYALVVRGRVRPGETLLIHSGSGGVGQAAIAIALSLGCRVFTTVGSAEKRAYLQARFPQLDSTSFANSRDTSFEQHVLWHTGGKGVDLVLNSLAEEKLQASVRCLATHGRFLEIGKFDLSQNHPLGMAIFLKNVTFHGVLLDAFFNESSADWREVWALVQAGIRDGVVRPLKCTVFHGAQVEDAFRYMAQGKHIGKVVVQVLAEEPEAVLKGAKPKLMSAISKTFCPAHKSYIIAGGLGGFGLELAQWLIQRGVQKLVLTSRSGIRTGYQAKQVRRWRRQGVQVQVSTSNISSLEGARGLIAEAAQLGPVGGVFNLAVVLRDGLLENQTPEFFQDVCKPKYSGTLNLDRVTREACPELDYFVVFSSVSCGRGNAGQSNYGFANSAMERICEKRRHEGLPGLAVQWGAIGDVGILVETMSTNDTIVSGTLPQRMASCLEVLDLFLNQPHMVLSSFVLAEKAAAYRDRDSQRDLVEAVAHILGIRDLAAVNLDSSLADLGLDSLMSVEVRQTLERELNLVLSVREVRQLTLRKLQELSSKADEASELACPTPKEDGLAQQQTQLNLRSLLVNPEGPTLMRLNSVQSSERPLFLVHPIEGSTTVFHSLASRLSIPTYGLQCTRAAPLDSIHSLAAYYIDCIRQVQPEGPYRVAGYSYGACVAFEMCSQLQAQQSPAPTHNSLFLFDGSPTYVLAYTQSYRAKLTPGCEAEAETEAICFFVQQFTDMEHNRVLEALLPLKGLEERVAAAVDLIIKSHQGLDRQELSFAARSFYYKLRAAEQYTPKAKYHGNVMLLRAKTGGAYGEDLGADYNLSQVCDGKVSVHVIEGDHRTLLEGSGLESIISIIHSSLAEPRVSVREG
Text: FASN Enzyme activity may be determined by detecting coenzyme A (CoA), a product of FASN-catalyzed synthesis of palmitate from acetyl-CoA and malonyl-CoA with NADPH as a cofactor. The assay is fluorescence-based and measures the interaction of free CoA with 7-diethylamino-3-(4′-malemimidylphenyl)-4-methylcoumarin (CPM; Life Technologies, CA) as described in Chung et al (2008). The coumarin derivative CPM contains a thiol-reactive maleimide that becomes fluorescent upon interaction with the sulfhydryl group of CoA.
For the example compounds described herein, the reaction was performed in 384-well low volume non-binding platews (Corning, NY) using recombinant human baculovirus-expressed GST-tagged FASN. The 20-μL assay mixture contained 50 mM HEPES (pH 7.5), 5 nM FASN, 150 μM NADPH (Sigma, St. Louis, MO), 10 μM acetyl-CoA (Sigma), 25 μM malonyl-CoA (Sigma) and test compound [diluted in dimethyl sulfoxide (DMSO); 0.5% DMSO final in assay after 100 nL addition]. See, Chung et al.; “A fluorescence-based thiol quantification assay for ultra-high-throughput screening for inhibitors of coenzyme A production,” Assay Drug Dev Tech 2008; 6:361-374.
The reaction was initiated by adding malonyl-CoA, followed by incubation for 90 minutes at […]. A stock solution of the CPM reagent was prepared in DMSO al 66 μM and stored at […]. To detect CoA produced in the FASN reaction, the CPM stock was diluted to 50 μM in 70% ethanol and added at 4 μL/well to the assay place. The reaction mixture was then incubated for 30 minutes. Fluorescence was measured using the EnVision™ 2102 multi-label plate reader (PerkinElmer, Waltham, MA) utilizing a general dual mirror, a 390 nm excitation filter and a 530 nm emission filter. Data analysis was performed using ActivityBase (IDBS, Guilford, UK). IC50 values were calculated by plotting the percent inhibition versus log 10 of the concentration of the compound, and fitting to the nonlinear regression sigmoidal dose-response (variable slope) equation in XLFit (IDBS).

Row | IC50 [µM] | SMILES
1 | 0.001 to 0.099 | Cc1c(-c2ccc(CC3(F)CCN(C(=O)[C@H]4CCCO4)CC3)cc2)cnc2ccccc12 [Example 181, (R)-(4-fluoro-4-(4-(4-methylquinolin-3-yl)benzyl)piperidin-1-yl)(tetrahydrofuran-2-yl)methanone]
2 | 0.001 to 0.099 | COC(C)(c1ccc(-c2cnc3ccccc3c2)cc1)C1CCN(C(=O)C2CC2)CC1 (stereo not shown) [Example 209, Cyclopropyl-{4-[1-methoxy-1-(4-quinolin-3-yl-phenyl)-ethyl]-piperidin-1-yl}-methanone]
3 | 0.1 to 0.999 | CCC(=O)N1CCC(C(C)(C)c2ccc(-c3cnc4ccccc4c3)cc2)CC1 [Example 205, 1-(4-(2-(4-(quinolin-3-yl)phenyl)propan-2-yl)piperidin-1-yl)propan-1-one]
4 | 0.1 to 0.999 | CCC(=O)N1CC=C(Cc2ccc(-c3cnc4ccccc4c3Cl)cc2)CC1 [Example 194, 1-(4-(4-(4-Chloroquinolin-3-yl)benzyl)-3,6-dihydropyridin-1(2H)-yl)propan-1-one]
5 | 0.001 to 0.099 | O=C(C1CCCO1)N1CC=C(Cc2ccc(-c3ccc4cccnc4c3)cc2)CC1 (stereo in doubt) [Example 188, (R)-(4-(4-(quinolin-7-yl)benzyl)-5,6-dihydropyridin-1(2H)-yl)(tetrahydrofuran-2-yl)methanone]

Continued, molecule first:

Row | SMILES | IC50 [µM]
6 | CCC(=O)N1CCC(Cc2ccc(-c3cnc4ccccc4c3C)cc2)CC1 [Example 12, 1-{4-[4-(4-Methylquinolin-3-yl)-benzyl]-piperidin-1-yl}-propan-1-one] | 0.001 to 0.099
7 | CC(C)C(=O)N1CCC(C2(c3ccc(-c4ccc5ncccc5c4)cc3)OCCO2)CC1 [Example 102, 2-Methyl-1-{4-[2-(4-quinolin-6-yl-phenyl)-1,3-dioxolan-2-yl]-piperidin-1-yl}-propan-1-one] | 1 to 10
8 | O=C([C@H]1CCCO1)N1CCC(O)(Cc2ccc(-c3cc4ccccc4cn3)cc2)CC1 [Example 146, [4-Hydroxy-4-(4-isoquinolin-3-yl-benzyl)-piperidin-1-yl]-(R)-tetrahydro-furan-2-yl-methanone] | 0.1 to 0.999
9 | O=C(C1CC1)N1CCC(Cc2ccc(-c3cnc4ccccc4c3Cl)cc2)CC1 [Example 20, {4-[4-(4-Chloroquinolin-3-yl)-benzyl]-piperidin-1-yl}-cyclopropylmethanone] | 0.001 to 0.099
10 | CN(C)S(=O)(=O)N1CCC(C2(c3ccc(-c4ccc5ncccc5c4)cc3)OCCO2)CC1 [Example 100, 4-[2-(4-Quinolin-6-yl-phenyl)-1,3-dioxolan-2-yl]-piperidine-1-sulfonic acid dimethylamide] | 1 to 10
11 | CCC(=O)N1CC=C(Cc2ccc(-c3cncc4ccccc34)cc2)CC1 [Example 168, 1-(4-(4-(isoquinolin-4-yl)benzyl)-5,6-dihydropyridin-1(2H)-yl)propan-1-one] | 1 to 10
12 | O=C([C@H]1CCCO1)N1CCC(Cc2ccc(-c3ccc4cccnc4c3Cl)cc2)CC1 [Example 31, {4-[4-(8-Chloroquinolin-7-yl)-benzyl]-piperidin-1-yl}-(R)-tetrahydrofuran-2-yl-methanone] | 0.001 to 0.099
13 | COc1c(-c2ccc(CC3CCN(C(=O)C4CC4)CC3)cc2)ccc2cccnc12 [Example 33, Cyclopropyl-{4-[4-(8-methoxyquinolin-7-yl)-benzyl]-piperidin-1-yl}-methanone] | 0.001 to 0.099
14 | Cc1c(-c2ccc(CC3CCN(C(=O)C4CC4)CC3)cc2)ccc2cccnc12 [Example 24, Cyclopropyl-{4-[4-(8-methylquinolin-7-yl)-benzyl]-piperidin-1-yl}-methanone] | 0.001 to 0.099
15 | CCC(=O)N1CCC(C(O)c2ccc(-c3ccc4cnccc4c3)cc2)CC1 (stereo not shown) [Example 130, 1-{4-[Hydroxy-(4-isoquinolin-6-yl-phenyl)-methyl]-piperidin-1-yl}-propan-1-one] | 0.001 to 0.099
16 | CCC(=O)N1CCC(Cc2ccc(-c3cnc4ccccc4c3Cl)cc2)CC1 [Example 19, 1-{4-[4-(4-Chloroquinolin-3-yl)-benzyl]-piperidin-1-yl}-propan-1-one] | 0.001 to 0.099
